Data reported in ChEMBL document CHEMBL5620398, “Membrane-active substituted triazines as antibacterial agents against Staphylococcus aureus with potential for low drug resistance and broad activity” (Eur J Med Chem, 2023).
≈ marks a conversion by molar mass, not a printed value. Calls of active or inactive are those of the source. The calls are words filed in the database; no cut-off is given here.

How the values were obtained:
Enterococcus faecalis [1] = assay: Antibacterial activity against Enterococcus faecalis assessed as inhibition of bacterial growth by two-fold serial broth dilution method; assay type: functional
Bacillus subtilis = assay: Antibacterial activity against Bacillus subtilis assessed as inhibition of bacterial growth by two-fold serial broth dilution method; assay type: functional
Listeria = assay: Antibacterial activity against Listeria sps. assessed as inhibition of bacterial growth by two-fold serial broth dilution method; assay type: functional
Staphylococcus aureus [2] = assay: Antibacterial activity against Staphylococcus aureus assessed as inhibition of bacterial growth by two-fold serial broth dilution method; assay type: functional
Escherichia coli = assay: Antibacterial activity against Escherichia coli assessed as inhibition of bacterial growth by two-fold serial broth dilution method; assay type: functional
Salmonella enterica = assay: Antibacterial activity against Salmonella enterica assessed as inhibition of bacterial growth by two-fold serial broth dilution method; assay type: functional
[3] = tested on: Acinetobacter calcoaceticus; assay: Antibacterial activity against Acinetobacter calcoaceticus assessed as inhibition of bacterial growth by two-fold serial broth dilution method; assay type: functional
Serratia marcescens = assay: Antibacterial activity against Serratia marcescens assessed as inhibition of bacterial growth by two-fold serial broth dilution method; assay type: functional
Enterococcus faecalis [4] = assay: Bacteriostatic activity against Enterococcus faecalis assessed as inhibition of bacterial growth; assay type: functional
Staphylococcus aureus [5] = assay: Bactericidal activity against Staphylococcus aureus assessed as bacterial killing; assay type: functional
Enterococcus faecalis [6] = assay: Ratio of MBC to MIC for Enterococcus faecalis; assay type: functional
Staphylococcus aureus [7] = assay: Ratio of MBC to MIC for Staphylococcus aureus; assay type: functional
Staphylococcus aureus [8] = assay: Bactericidal activity against Staphylococcus aureus assessed as decrease in bacterial absorbance at MIC measured after 1 hr by time-kill analysis; assay type: functional, organism-based
Staphylococcus aureus [9] = assay: Bactericidal activity against Staphylococcus aureus assessed as decrease in bacterial absorbance at 1/2XMIC measured after 2 hrs by time-kill analysis; assay type: functional, organism-based
Staphylococcus aureus [10] = assay: Bactericidal activity against Staphylococcus aureus assessed as inhibition of bacterial growth at 1/4XMIC measured for 3 hrs by time-kill analysis; assay type: functional, organism-based
Staphylococcus aureus [11] = assay: Antibacterial activity against Staphylococcus aureus assessed as inhibition of bacterial growth measured after 11 passages; assay type: functional, organism-based
Staphylococcus aureus [12] = assay: Anti-biofilm activity against Staphylococcus aureus assessed as inhibition of biofilm formation at MIC by crystal violet assay; assay type: functional
Staphylococcus aureus [13] = assay: Anti-biofilm activity against Staphylococcus aureus assessed as inhibition of biofilm formation at 1/2XMIC by crystal violet assay; assay type: functional
Staphylococcus aureus [14] = assay: Anti-biofilm activity against Staphylococcus aureus assessed as inhibition of biofilm formation at 1/8XMIC by crystal violet assay; assay type: functional
Staphylococcus aureus [15] = assay: Anti-biofilm activity against Staphylococcus aureus assessed as inhibition of biofilm formation at 1/16XMIC by crystal violet assay; assay type: functional
Cell membrane [16] = assay: Induction of Outer membrane disruption in Staphylococcus aureus assessed as […] in fluorescence intensity at MIC to 4X MIC by NPN dye based fluorescence analysis
Cell membrane [17] = assay: Induction of Outer membrane disruption in Staphylococcus aureus assessed as […] in fluorescence intensity at MIC to 4X MIC measured for 5 to 30 mins by NPN dye based fluorescence analysis; settings: time 5-30 min, TDE = time-dependent effect
Cell membrane [18] = assay: Induction of Inner membrane disruption in Staphylococcus aureus assessed as increase in fluorescence intensity at MIC to 4XMIC by EtBr dye based fluorescence analysis; assay type: cell membranes
Cell membrane [19] = assay: Induction of Inner membrane disruption in Staphylococcus aureus assessed as increase in fluorescence intensity at MIC to 4XMIC measured for 5 to 30 mins by EtBr dye based fluorescence analysis; assay type: cell membranes; settings: time 5-30 min, TDE = time-dependent effect
Cell membrane [20] = assay: Induction of cell membrane damage in Staphylococcus aureus assessed as increase in leaked protein content at MIC to 8XMIC; assay type: cell membranes
Cell membrane [21] = assay: Induction of cell membrane damage in Staphylococcus aureus assessed as loss of bacterial metabolic activity at MIC to 8XMIC by Alamar blue dye based fluorescence analysis; assay type: cell membranes
Cell membrane [22] = assay: Induction of cell membrane damage in Staphylococcus aureus assessed as broken cell membrane at 2XMIC by SEM analysis; assay type: cell membranes
Cell membrane [23] = assay: Induction of cell membrane damage in Staphylococcus aureus assessed as corrugation with leakage of cellular contents at 2XMIC by SEM analysis; assay type: cell membranes
HEK293 [24] = assay: Cytotoxicity against human HEK293 cells at 0.01 uM by MTT assay; assay type: toxicity, cell-based; settings: hek293, 0.01 µM
HEK293 [25] = assay: Cytotoxicity against human HEK293 cells at 0.1 uM by MTT assay; assay type: toxicity, cell-based; settings: hek293, 0.1 µM
HEK293 [26] = assay: Cytotoxicity against human HEK293 cells at 1 uM by MTT assay; assay type: toxicity, cell-based; settings: hek293, 1 µM
HEK293 [27] = assay: Cytotoxicity against human HEK293 cells at 10 uM by MTT assay; assay type: toxicity, cell-based; settings: hek293, 10 µM
HEK293 [28] = assay: Cytotoxicity against human HEK293 cells at 100 uM by MTT assay; assay type: toxicity, cell-based; settings: hek293, 100 µM
Albumin [29] = target: T1, Albumin (Homo sapiens, UniProt P02768); assay: Binding affinity to human serum albumin assessed as binding constant by Benesi-Hildebrand equation based analysis; assay type: ADME; settings: isolated protein
Albumin [30] = target: T1, Albumin; assay: Binding affinity to human serum albumin assessed as increase in compound corresponding new band formation at 344 nm at 0 to 18 uM by UV-Vis absorption spectroscopic analysis; assay type: ADME; settings: isolated protein, dose 0-18 µM
Albumin [31] = target: T1, Albumin; assay: Binding affinity to human serum albumin assessed as hyperchromic shift at 280 nm at 0 to 18 uM by UV-Vis absorption spectroscopic analysis; assay type: ADME; settings: isolated protein, dose 0-18 µM
Albumin [32] = target: T1, Albumin; assay: Binding affinity to human serum albumin assessed as quenching in emission band at 350 nm at 0 to 35 uM at 298 to 318K by fluorescence based analysis; assay type: ADME; settings: isolated protein, dose 0-35 µM
Albumin [33] = target: T1, Albumin; assay: Binding affinity to human serum albumin assessed as Stem-Volmer quenching constant at 298K by fluorescence based analysis; assay type: ADME; settings: isolated protein
Albumin [34] = target: T1, Albumin; assay: Binding affinity to human serum albumin assessed as quenching constant at 298K by fluorescence based analysis; assay type: ADME; settings: isolated protein
Albumin [35] = target: T1, Albumin; assay: Binding affinity to human serum albumin assessed as Stem-Volmer quenching constant at 308K by fluorescence based analysis; assay type: ADME; settings: isolated protein
Albumin [36] = target: T1, Albumin; assay: Binding affinity to human serum albumin assessed as Stem-Volmer quenching constant at 318K by fluorescence based analysis; assay type: ADME; settings: isolated protein
Albumin [37] = target: T1, Albumin; assay: Binding affinity to human serum albumin assessed as binding constant at 298K by fluorescence based analysis; assay type: ADME; settings: isolated protein
Albumin [38] = target: T1, Albumin; assay: Binding affinity to human serum albumin assessed as binding constant at 308K by fluorescence based analysis; assay type: ADME; settings: isolated protein
Albumin [39] = target: T1, Albumin; assay: Binding affinity to human serum albumin assessed as binding constant at 318K by fluorescence based analysis; assay type: ADME; settings: isolated protein
Albumin [40] = target: T1, Albumin; assay: Binding affinity to human serum albumin assessed as change in enthalpy by Van't Hoff plot analysis; assay type: ADME; settings: isolated protein
Albumin [41] = target: T1, Albumin; assay: Binding affinity to human serum albumin assessed as change in free energy at 298K by Van't Hoff plot analysis; assay type: ADME; settings: isolated protein
Albumin [42] = target: T1, Albumin; assay: Binding affinity to human serum albumin assessed as change in free energy at 308K by Van't Hoff plot analysis; assay type: ADME; settings: isolated protein
Albumin [43] = target: T1, Albumin; assay: Binding affinity to human serum albumin assessed as change in free energy at 318K by Van't Hoff plot analysis; assay type: ADME; settings: isolated protein
Albumin [44] = target: T1, Albumin; assay: Binding affinity to human serum albumin assessed as change in entropy by Van't Hoff plot analysis; assay type: ADME; settings: isolated protein
Albumin [45] = target: T1, Albumin; assay: Binding affinity to human serum albumin assessed as dynamic quenching by measuring decrease in decay time of HSA at 0 to 21 uM by time-resolved fluorescence analysis; assay type: ADME; settings: isolated protein, dose 0-21 µM
Calf thymus DNA [46] = assay: Binding affinity to calf thymus DNA assessed as hypochromic shift in absorption band at 344 nm at 5 uM by UV-Vis absorption spectroscopy; assay type: nucleic-acid assay; settings: Bos taurus
Calf thymus DNA [47] = assay: Binding affinity to calf thymus DNA by Benesi-Hildebrand equation based analysis; assay type: nucleic-acid assay; settings: Bos taurus
Calf thymus DNA [48] = assay: Binding affinity to calf thymus DNA assessed as DNA intercalation by measuring increase in DNA melting temperature by thermal denaturation based analysis; assay type: nucleic-acid assay; settings: Bos taurus
Calf thymus DNA [49] = assay: Binding affinity to calf thymus DNA assessed as Stern-Volmer quenching constant by fluorescence based analysis; assay type: nucleic-acid assay; settings: Bos taurus
Calf thymus DNA [50] = assay: Binding affinity to calf thymus DNA assessed as quenching constant by fluorescence based analysis; assay type: nucleic-acid assay; settings: Bos taurus
Calf thymus DNA [51] = assay: Binding affinity to calf thymus DNA assessed as binding constant by fluorescence based analysis; assay type: nucleic-acid assay; settings: Bos taurus
Calf thymus DNA [52] = assay: Binding affinity to calf thymus DNA assessed as DNA intercalation by measuring quenching in emission band at 601 nm at 0 to 90 uM by ethidium bromide competitive displacement assay; assay type: nucleic-acid assay; settings: Bos taurus; dose 0-90 µM

T1 sequence (P02768 whole entry): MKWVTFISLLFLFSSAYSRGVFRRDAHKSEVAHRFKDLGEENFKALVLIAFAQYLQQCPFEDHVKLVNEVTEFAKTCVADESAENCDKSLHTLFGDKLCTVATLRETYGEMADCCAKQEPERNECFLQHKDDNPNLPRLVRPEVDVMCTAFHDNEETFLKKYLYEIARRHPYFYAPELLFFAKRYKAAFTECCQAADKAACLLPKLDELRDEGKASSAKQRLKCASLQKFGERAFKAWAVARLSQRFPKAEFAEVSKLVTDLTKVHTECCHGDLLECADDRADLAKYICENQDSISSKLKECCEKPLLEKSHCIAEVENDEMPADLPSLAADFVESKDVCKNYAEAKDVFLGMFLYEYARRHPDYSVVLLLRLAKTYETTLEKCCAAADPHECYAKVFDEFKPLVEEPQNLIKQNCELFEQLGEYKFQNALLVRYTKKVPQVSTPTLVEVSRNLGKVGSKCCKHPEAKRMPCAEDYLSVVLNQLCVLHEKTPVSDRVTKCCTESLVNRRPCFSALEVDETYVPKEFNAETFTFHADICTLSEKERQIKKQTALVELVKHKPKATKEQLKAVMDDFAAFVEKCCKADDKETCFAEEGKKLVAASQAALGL

Compound: O=C1c2cccc3cccc(c23)C(=O)N1Nc1nc(NCc2ccccc2)nc(N2CCOCC2)n1
- MIC (Enterococcus faecalis [1]): 0.003 µg/mL (≈ 0.00623 µM)
- MIC (Bacillus subtilis): 3.12 µg/mL (≈ 6.49 µM)
- MIC (Listeria): 6.25 µg/mL (≈ 13 µM)
- MIC (Staphylococcus aureus [2]): 1.56 µg/mL (≈ 3.24 µM)
- MIC (Escherichia coli): 100 µg/mL (≈ 208 µM)
- MIC (Salmonella enterica): 200 µg/mL (≈ 415 µM)
- MIC [3]: 200 µg/mL (≈ 415 µM)
- MIC (Serratia marcescens): 100 µg/mL (≈ 208 µM)
- MBC (Enterococcus faecalis [4]): 0.19 µg/mL (≈ 0.395 µM)
- MBC (Staphylococcus aureus [5]): 3.25 µg/mL (≈ 6.75 µM)
- Ratio (Enterococcus faecalis [6]): >=32
- Ratio (Staphylococcus aureus [7]): 2
- Activity (Staphylococcus aureus [8]): Active
- Activity (Staphylococcus aureus [9]): Active
- Activity (Staphylococcus aureus [10]): Active
- Activity (Staphylococcus aureus [11]): Active
- inhibition (INH) (Staphylococcus aureus [12]): 60%
- inhibition (INH) (Staphylococcus aureus [13]): 30%
- inhibition (INH) (Staphylococcus aureus [14]): 10%
- inhibition (INH) (Staphylococcus aureus [15]): 5%
- Activity (Cell membrane [16]): Dose-Dependent Effect
- Activity (Cell membrane [17]): Tde
- Activity (Cell membrane [18]): Dose-Dependent Effect
- Activity (Cell membrane [19]): Tde
- Activity (Cell membrane [20]): Active
- Activity (Cell membrane [21]): Active
- Activity (Cell membrane [22]): Active
- Activity (Cell membrane [23]): Active
- Activity (HEK293 [24]): 13.4%
- Activity (HEK293 [25]): 12.2%
- Activity (HEK293 [26]): 11.8%
- Activity (HEK293 [27]): 10.5%
- Activity (HEK293 [28]): 9.01%
- Kb (Albumin [29]): 1.32 10^5/M
- Activity (Albumin [30]): Active
- Activity (Albumin [31]): Active
- Activity (Albumin [32]): Active
- KSV (Albumin [33]): 1.63 10^5/M
- Kq (Albumin [34]): 1.63 10^13/M
- KSV (Albumin [35]): 1.18 10^5/M
- KSV (Albumin [36]): 1.13 10^5/M
- Kb (Albumin [37]): 11.01 10^4/M
- Kb (Albumin [38]): 6.61 10^4/M
- Kb (Albumin [39]): 4.41 10^4/M
- deltaH (Albumin [40]): -2.06 kcal/mol
- deltaG (Albumin [41]): -1.64 kcal/mol
- deltaG (Albumin [42]): -1.62 kcal/mol
- deltaG (Albumin [43]): -1.61 kcal/mol
- deltaS (Albumin [44]): -5.88 J/mol.K
- Activity (Albumin [45]): Active
- Activity (Calf thymus DNA [46]): Active
- Kb (Calf thymus DNA [47]): 5.99 10^4/M
- ΔTm (Calf thymus DNA [48]): 12.8 °C
- KSV (Calf thymus DNA [49]): 1.22 10^4/M
- Kq (Calf thymus DNA [50]): 1.22 10^12/M/s
- Kb (Calf thymus DNA [51]): 8.26 10^4/M
- Activity (Calf thymus DNA [52]): Active
